For 10 compounds, EC50 results are on record in patent publication US8383639B2, “HIV integrase inhibitors” (priority 2009, dated 2013).

This assay relates to recombinant NL-Rluc virus. The experiment in a line: Inhibition of HIV replication (NL-RLuc pseudotype virus, luciferase). The following applies: Human immunodeficiency virus 1, read-out: Activity (EC50). In kind it is cell-based.
Consider `CC1(C)OCCn2c1nc(-c1nnc(Cc3ccc(F)cc3)[nH]1)c(O)c2=O` [Example 4, 2-(5-(4-Fluorobenzyl)-4H-1,2,4-triazol-3-yl)-3-hydroxy-9,9-dimethyl-6,7-dihydropyrimido[2,1-c][1,4]oxazin-4(9H)-one], for which the EC50 worked out at 51 nM.

Regarding `CC1(C)OCCn2c1nc(-c1nnc(Cc3ccc(F)cc3)o1)c(O)c2=O` [Example 12, 2-(5-(4-Fluorobenzyl)-1,3,4-oxadiazol-2-yl)-3-hydroxy-9,9-dimethyl-6,7-dihydropyrimido[2,1-c][1,4]oxazin-4(9H)-one], the concentration for a half-maximal effect (EC50) was determined as 8 nM.

As for `CC1(C)OCCn2c1nc(-c1ncc(Cc3ccc(F)cc3)[nH]1)c(O)c2=O` [Example 1, 2-(5-(4-Fluorobenzyl)-1H-imidazol-2-yl)-3-hydroxy-9,9-dimethyl-6,7-dihydropyrimido[2,1-c][1,4]oxazin-4(9H)-one], the EC50 was determined as 7 nM.

Regarding `CC1(C)OCCn2c1nc(-c1cn(Cc3ccc(F)cc3)cn1)c(O)c2=O` [Example 3, 2-(1-(4-Fluorobenzyl)-1H-imidazol-4-yl)-3-hydroxy-9,9-dimethyl-6,7-dihydropyrimido[2,1-c][1,4]oxazin-4(9H)-one], the EC50 came to 5 nM.

Consider `Cn1c(Cc2ccc(F)cc2)cnc1-c1nc2n(c(=O)c1O)CCOC2(C)C` [Example 2, 2-(5-(4-Fluorobenzyl)-1-methyl-1H-imidazol-2-yl)-3-hydroxy-9,9-dimethyl-6,7-dihydropyrimido[2,1-c][1,4]oxazin-4(9H)-one], for which the EC50 stood at 10 nM.

`CCOc1nc(-c2nc(Cc3ccc(F)cc3)no2)c(O)c(=O)n1C` [Example 7, 2-Ethoxy-6-(3-(4-fluorobenzyl)-1,2,4-oxadiazol-5-yl)-5-hydroxy-3-methylpyrimidin-4(3H)-one]: the EC50 worked out at 31000 nM.

Turning to `CC1(C)OCCn2c1nc(-c1ncn(Cc3ccc(F)cc3)n1)c(O)c2=O` [Example 5, 2-(1-(4-Fluorobenzyl)-1H-1,2,4-triazol-3-yl)-3-hydroxy-9,9-dimethyl-6,7-dihydropyrimido[2,1-c][1,4]oxazin-4(9H)-one], the EC50 turned out to be 7 nM.

Take `Cn1c(Cc2ccc(F)cc2)nnc1-c1nc2n(c(=O)c1O)CCOC2(C)C` [Example 6, 2-(5-(4-Fluorobenzyl)-4-methyl-4H-1,2,4-triazol-3-yl)-3-hydroxy-9,9-dimethyl-6,7-dihydropyrimido[2,1-c][1,4]oxazin-4(9H)-one]: the EC50 was determined as 141 nM.

With `CC1(C)OCCn2c1nc(-c1ncc(Cc3ccc(F)cc3)s1)c(O)c2=O` [Example 11, 2-(5-(4-Fluorobenzyl)thiazol-2-yl)-3-hydroxy-9,9-dimethyl-6,7-dihydropyrimido[2,1-c][1,4]oxazin-4(9H)-one], the EC50 amounted to 14 nM.

In the case of `Cn1c(C2CCCC2)nc(-c2nc(Cc3ccc(F)cc3)no2)c(O)c1=O` [Example 9, 2-Cyclopentyl-6-(3-(4-fluorobenzyl)-1,2,4-oxadiazol-5-yl)-5-hydroxy-3-methylpyrimidin-4(3H)-one], the EC50 is 22000 nM.

A word on the EC50: it is the concentration that produces a half-maximal response.
